Data taken from publication PMC8035211 (Nature Communications, 2021).
Where two headings read alike, the source gives them in different places.

Assays:
[1] = biological target: T1, FgCelDH7C (Fusarium graminearum, UniProt I1RWY4); assay type: biochemical; settings: apparent, 0.1 mM DCIP as acceptor, 50 mM HEPES pH 7.0, 35 °C
T1 construct: gene FGRAMPH1_01T10923

[2] = biological target: T2, MoChi7A (Pyricularia oryzae, UniProt G4NAH7); assay type: biochemical; settings: apparent; O2 as acceptor; 50 mM NaOAc pH 5.2, 35 °C; read-out: Enzyme / MoChi7A / Cellotriose
T2 construct: gene MGG_09717

[3] = biological target: T3, FgChi7B (Fusarium graminearum, UniProt A0A098DND1); settings: covalent; bi-covalent, 6-S-cysteinyl C162 and 8alpha-N1-histidyl H102
T3 construct: gene FGRAMPH1_01T15319

[4] = biological target: T1, FgCelDH7C; assay type: binding; settings: covalent; mono-covalent histidyl tether

T1 sequence (I1RWY4 24-499 limits assumed): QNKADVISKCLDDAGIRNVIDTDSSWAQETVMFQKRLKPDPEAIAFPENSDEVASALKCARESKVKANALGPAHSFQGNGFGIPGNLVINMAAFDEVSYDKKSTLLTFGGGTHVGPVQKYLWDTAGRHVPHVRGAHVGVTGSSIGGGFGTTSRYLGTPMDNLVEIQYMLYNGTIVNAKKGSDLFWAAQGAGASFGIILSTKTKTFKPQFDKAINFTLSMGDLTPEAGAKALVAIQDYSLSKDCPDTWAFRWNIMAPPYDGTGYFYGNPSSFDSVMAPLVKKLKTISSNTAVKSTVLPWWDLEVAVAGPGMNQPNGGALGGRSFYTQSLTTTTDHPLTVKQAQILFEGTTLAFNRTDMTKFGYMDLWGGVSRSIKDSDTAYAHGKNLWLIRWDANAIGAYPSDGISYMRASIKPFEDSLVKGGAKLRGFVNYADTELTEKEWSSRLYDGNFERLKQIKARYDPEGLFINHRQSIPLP
T2 sequence (G4NAH7 21-718 limits assumed): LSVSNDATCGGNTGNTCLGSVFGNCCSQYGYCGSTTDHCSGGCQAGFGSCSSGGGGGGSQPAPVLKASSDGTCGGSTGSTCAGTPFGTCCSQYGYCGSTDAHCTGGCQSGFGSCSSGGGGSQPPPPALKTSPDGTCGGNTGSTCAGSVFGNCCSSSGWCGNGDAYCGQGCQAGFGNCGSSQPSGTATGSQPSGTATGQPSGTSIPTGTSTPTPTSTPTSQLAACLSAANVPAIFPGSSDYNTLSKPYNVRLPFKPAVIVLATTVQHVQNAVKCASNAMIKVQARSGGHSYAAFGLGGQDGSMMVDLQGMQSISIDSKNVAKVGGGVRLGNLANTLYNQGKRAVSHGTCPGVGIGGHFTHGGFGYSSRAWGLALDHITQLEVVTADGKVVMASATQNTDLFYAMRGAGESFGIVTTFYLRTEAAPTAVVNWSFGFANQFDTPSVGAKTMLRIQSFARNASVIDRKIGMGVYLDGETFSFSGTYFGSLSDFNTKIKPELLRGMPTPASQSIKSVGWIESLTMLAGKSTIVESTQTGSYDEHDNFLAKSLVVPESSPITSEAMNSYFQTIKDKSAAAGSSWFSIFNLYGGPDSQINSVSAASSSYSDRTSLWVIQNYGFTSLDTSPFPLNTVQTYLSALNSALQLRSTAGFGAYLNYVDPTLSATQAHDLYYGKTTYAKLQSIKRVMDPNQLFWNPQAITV
T3 sequence (A0A098DND1 21-504 limits assumed): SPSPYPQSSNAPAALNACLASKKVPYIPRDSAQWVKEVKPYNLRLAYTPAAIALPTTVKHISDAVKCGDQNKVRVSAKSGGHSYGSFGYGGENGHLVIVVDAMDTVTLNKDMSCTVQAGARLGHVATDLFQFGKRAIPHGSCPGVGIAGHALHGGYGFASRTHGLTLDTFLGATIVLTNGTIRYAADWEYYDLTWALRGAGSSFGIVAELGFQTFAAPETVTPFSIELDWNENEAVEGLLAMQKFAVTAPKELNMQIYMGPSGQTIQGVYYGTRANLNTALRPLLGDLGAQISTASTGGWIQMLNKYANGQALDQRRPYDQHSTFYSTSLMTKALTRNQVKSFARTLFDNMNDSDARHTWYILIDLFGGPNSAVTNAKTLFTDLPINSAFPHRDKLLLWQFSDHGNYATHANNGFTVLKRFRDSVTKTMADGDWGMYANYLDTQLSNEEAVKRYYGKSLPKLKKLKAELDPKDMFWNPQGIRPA

**Q.** With `OC[C@H]1O[C@@H](O[C@H]2[C@H](O)[C@@H](O)C(O)O[C@@H]2CO)[C@H](O)[C@@H](O)[C@@H]1O` (some centres unmarked) [Cellobiose] as the compound, how does the Km ([1]; read-out: Parameter / Cellobiose) read?
**A.** 5350 ± 390 µM

**Q.** Which Km ([1]; read-out: Enzyme / PbChi7A / Cellotetraose) does the source give for `OC[C@H]1O[C@@H](O[C@H]2[C@H](O)[C@@H](O)[C@H](O[C@H]3[C@H](O)[C@@H](O)[C@H](O[C@H]4[C@H](O)[C@@H](O)C(O)O[C@@H]4CO)O[C@@H]3CO)O[C@@H]2CO)[C@H](O)[C@@H](O)[C@@H]1O` (some centres unmarked) [Cellotetraose] here?
**A.** 6060 ± 270 µM

**Q.** `OC[C@H]1O[C@@H](O[C@H]2[C@H](O)[C@@H](O)[C@H](O[C@H]3[C@H](O)[C@@H](O)C(O)O[C@@H]3CO)O[C@@H]2CO)[C@H](O)[C@@H](O)[C@@H]1O` (some centres unmarked) [Cellotriose] was tested. Which Km ([1]; read-out: Enzyme / Cellotriose, read-out: Enzyme / MoChi7A / Cellotriose) did it give?
**A.** 3940 ± 220 µM

**Q.** Which Km [2] does the source give for `CC(=O)N[C@H]1[C@H](O[C@H]2[C@H](O)[C@@H](NC(C)=O)C(O)O[C@@H]2CO)O[C@H](CO)[C@@H](O)[C@@H]1O` (some centres unmarked) [Chitobiose] here?
**A.** 64 ± 10 µM

**Q.** Which results are given for `Cc1cc2nc3c(=O)[nH]c(=O)nc-3n(C[C@H](O)[C@H](O)[C@H](O)COP(=O)(O)OP(=O)(O)OC[C@H]3O[C@@H](n4cnc5c(N)ncnc54)[C@H](O)[C@@H]3O)c2cc1C` [FAD]?
**A.** crystal structure, 2.4 Å [3]: isoalloxazine ring of the FAD cofactor in FgChi7B is bi-covalently anchored at the C6 atom; crystal structure, 1.6 Å [4]: FgCelDH7C is mono-covalently histidyl-tethered due to the substitution of the FAD-tethering cysteine to a glycine

**Q.** For `CC(=O)N[C@H]1C(O)O[C@H](CO)[C@H](O)[C@@H]1O` (some centres unmarked) [GalNAc], which Km [2] is on record?
**A.** 1690 ± 120 µM

**Q.** For `CC(=O)N[C@H]1C(O)O[C@H](CO)[C@@H](O)[C@@H]1O` (some centres unmarked) [GlcNAc], which Km [2] is on record?
**A.** 800 ± 50 µM
